# Test results reported in patent US20100004234A1, “SPECIFIC KINASE INHIBITORS” (Kosan Biosciences Incorporated, priority 2004, published 2010).
# Like-named read-outs stand apart in the source and are kept apart here.
# Experiments:
# MEK1 = MEK1 (Homo sapiens, UniProt Q02750); conditions: cited from earlier work
# ERK2 [1] = target: ERK2 (UniProt P28482); format: biochemical; parameters: "the target Cys 172 residue; conditions: Table 7
# Method: (§1) In either case, the time dependent inactivation can be dampened by the presence of a competing substrate, in this case ATP.
# (§2) For covalent inhibitors, plots of log (activity) versus time provide apparent first-order rate constants (kobsd) of enzyme activity loss. If these assays are performed at varying concentrations of inhibitor, a series of first-order plots is obtained and kobsd obtained at each inhibitor concentration. […] Such molecules may be competitive inhibitors but should not show time-dependent inactivation.
# (§3) Inhibition progress curve analysis was performed using continuous, colorimetric, or fluorimetric assays. All experiments were done at 1 mM ATP, with the exception of KDR (at 5 mM ATP).
# (§4) MEK1 assays were performed using pre-incubation experiments with radioactive [^32P]ATP and filter binding of product. All other kinases were analyzed using progress curve analysis from a continuous spectrophotometric assay.
# FGFR4(h) = FGFR4(h) (Homo sapiens, UniProt P22455); assay: Kinase panel, residual activity; format: biochemical; conditions: read-out: Percent residual activity
# Method: (§5) In this panel of 124 kinases, 18 of the 19 kinases identified as having an active site cysteine were inhibited to some extent by hypothemycin at a concentration of 0.2 μM and/or 2 μM.
# PKCβI(h) = PKCβI(h) (Homo sapiens, UniProt P05771); assay: Kinase panel, residual activity; format: biochemical; conditions: read-out: Percent residual activity
# Method: as §5
# SAPK3(h) = SAPK3(h) (Homo sapiens, UniProt P53778); assay: Kinase panel, residual activity; format: biochemical; conditions: read-out: Percent residual activity
# Method: as §5
# NEK6(h) = NEK6(h) (Homo sapiens, UniProt Q9HC98); assay: Kinase panel, residual activity; format: biochemical; conditions: read-out: Percent residual activity
# Method: as §5
# MSK2(h) = MSK2(h) (Homo sapiens, UniProt O75676); assay: Kinase panel, residual activity; format: biochemical; conditions: read-out: Percent residual activity
# Method: as §5
# MAPKAP-K2(h) = MAPKAP-K2(h) (Homo sapiens, UniProt P49137); assay: Kinase panel, residual activity; format: biochemical; conditions: read-out: Percent residual activity
# Method: as §5
# PKBγ(h) = PKBγ(h) (Homo sapiens, UniProt Q9Y243); assay: Kinase panel, residual activity; format: biochemical; conditions: read-out: Percent residual activity
# Method: as §5
# JNK2α2(h) = JNK2α2(h) (Homo sapiens, UniProt P45984); assay: Kinase panel, residual activity; format: biochemical; conditions: read-out: Percent residual activity
# Method: as §5
# CDK6/cyclinD3(h) = CDK6/cyclinD3(h) (Homo sapiens, UniProt Q00534); assay: Kinase panel, residual activity; format: biochemical; conditions: read-out: Percent residual activity
# Method: as §5
# PKBα(h) = PKBα(h) (Homo sapiens, UniProt P31749); assay: Kinase panel, residual activity; format: biochemical; conditions: read-out: Percent residual activity
# Method: as §5
# ASK1(h) = ASK1(h) (Homo sapiens, UniProt Q99683); assay: Kinase panel, residual activity; format: biochemical; conditions: read-out: Percent residual activity
# Method: as §5
# ALK(h) = ALK(h) (Homo sapiens, UniProt Q9UM73); assay: Kinase panel, residual activity; format: biochemical; conditions: read-out: Percent residual activity
# Method: as §5
# MST2(h) = MST2(h) (Homo sapiens, UniProt Q13188); assay: Kinase panel, residual activity; format: biochemical; conditions: read-out: Percent residual activity
# Method: as §5
# Rsk3(h) = Rsk3(h) (Homo sapiens, UniProt Q15349); assay: Kinase panel, residual activity; format: biochemical; conditions: read-out: Percent residual activity
# Method: as §5
# CK2(h) = CK2(h) (Homo sapiens, UniProt P68400); assay: Kinase panel, residual activity; format: biochemical; conditions: read-out: Percent residual activity
# Method: as §5
# MAPK1(h) = MAPK1(h) (Homo sapiens, UniProt P27361); assay: Kinase panel, residual activity; format: biochemical; conditions: read-out: Percent residual activity
# Method: as §5
# Bmx(h) = Bmx(h) (Homo sapiens, UniProt P51813); assay: Kinase panel, residual activity; format: biochemical; conditions: read-out: Percent residual activity
# Method: as §5
# MSK1(h) = MSK1(h) (Homo sapiens, UniProt O75582); assay: Kinase panel, residual activity; format: biochemical; conditions: read-out: Percent residual activity
# Method: as §5
# Lck(h) = Lck(h) (Homo sapiens, UniProt P06239); assay: Kinase panel, residual activity; format: biochemical; conditions: read-out: Percent residual activity
# Method: as §5
# BRK(h) = BRK(h) (Homo sapiens, UniProt Q13882); assay: Kinase panel, residual activity; format: biochemical; conditions: read-out: Percent residual activity
# Method: as §5
# Ret(h) = Ret(h) (Homo sapiens, UniProt P07949); assay: Kinase panel, residual activity; format: biochemical; conditions: read-out: Percent residual activity
# Method: as §5
# CDK2/cyclinE(h) = CDK2/cyclinE(h) (Homo sapiens, UniProt P24941); assay: Kinase panel, residual activity; format: biochemical; conditions: read-out: Percent residual activity
# Method: as §5
# CDK5/p35(h) = CDK5/p35(h) (Homo sapiens, UniProt Q00535); assay: Kinase panel, residual activity; format: biochemical; conditions: read-out: Percent residual activity
# Method: as §5
# PAK4(h) = PAK4(h) (Homo sapiens, UniProt O96013); assay: Kinase panel, residual activity; format: biochemical; conditions: read-out: Percent residual activity
# Method: as §5
# PAK2(h) = PAK2(h) (Homo sapiens, UniProt Q13177); assay: Kinase panel, residual activity; format: biochemical; conditions: read-out: Percent residual activity
# Method: as §5
# Fyn(h) = Fyn(h) (Homo sapiens, UniProt P06241); assay: Kinase panel, residual activity; format: biochemical; conditions: read-out: Percent residual activity
# Method: as §5
# EphA2(h) = EphA2(h) (Homo sapiens, UniProt P29317); assay: Kinase panel, residual activity; format: biochemical; conditions: read-out: Percent residual activity
# Method: as §5
# DDR2(h) = DDR2(h) (Homo sapiens, UniProt Q16832); assay: Kinase panel, residual activity; format: biochemical; conditions: read-out: Percent residual activity
# Method: as §5
# FGFR1(h) = FGFR1(h) (Homo sapiens, UniProt P11362); assay: Kinase panel, residual activity; format: biochemical; conditions: read-out: Percent residual activity
# Method: as §5
# TAK1(h) = TAK1(h) (Homo sapiens, UniProt O43318); assay: Kinase panel, residual activity; format: biochemical; conditions: read-out: Percent residual activity
# Method: as §5
# ERK2 [2] = target: ERK2 (UniProt P28482); format: biochemical; parameters: Ki; other: ERK2; 1 mM ATP; kinact; T1/2; kinact/Ki; "the target Cys 172 residue; conditions: ERK2
# Method: as §1, §2, §3, §4
# Chain of MAPK1(h) (P27361 whole entry): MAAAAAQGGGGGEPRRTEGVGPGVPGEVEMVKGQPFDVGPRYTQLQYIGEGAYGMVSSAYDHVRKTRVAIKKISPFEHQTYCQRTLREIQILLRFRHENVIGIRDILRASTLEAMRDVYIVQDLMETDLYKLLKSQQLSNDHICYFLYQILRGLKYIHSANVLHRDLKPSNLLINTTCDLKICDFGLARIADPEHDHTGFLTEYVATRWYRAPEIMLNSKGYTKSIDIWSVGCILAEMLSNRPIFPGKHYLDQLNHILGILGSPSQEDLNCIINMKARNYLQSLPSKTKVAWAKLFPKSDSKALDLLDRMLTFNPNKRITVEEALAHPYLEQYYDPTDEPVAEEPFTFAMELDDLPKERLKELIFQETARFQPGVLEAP
# Chain of TAK1(h) (O43318 1-303 limits assumed): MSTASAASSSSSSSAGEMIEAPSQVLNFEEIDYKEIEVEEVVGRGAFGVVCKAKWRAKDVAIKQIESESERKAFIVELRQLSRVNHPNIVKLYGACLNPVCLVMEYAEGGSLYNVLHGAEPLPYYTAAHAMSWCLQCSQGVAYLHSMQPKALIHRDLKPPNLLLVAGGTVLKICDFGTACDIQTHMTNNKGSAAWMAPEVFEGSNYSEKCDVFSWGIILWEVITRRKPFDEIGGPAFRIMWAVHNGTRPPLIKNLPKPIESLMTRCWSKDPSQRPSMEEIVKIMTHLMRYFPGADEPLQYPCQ
# Chain of TAK1(h) (Q15750 437-504 partner limits assumed): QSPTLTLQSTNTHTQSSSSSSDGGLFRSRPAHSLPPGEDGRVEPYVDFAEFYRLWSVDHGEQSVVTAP
# Chain of NEK6(h) (Q9HC98 whole entry): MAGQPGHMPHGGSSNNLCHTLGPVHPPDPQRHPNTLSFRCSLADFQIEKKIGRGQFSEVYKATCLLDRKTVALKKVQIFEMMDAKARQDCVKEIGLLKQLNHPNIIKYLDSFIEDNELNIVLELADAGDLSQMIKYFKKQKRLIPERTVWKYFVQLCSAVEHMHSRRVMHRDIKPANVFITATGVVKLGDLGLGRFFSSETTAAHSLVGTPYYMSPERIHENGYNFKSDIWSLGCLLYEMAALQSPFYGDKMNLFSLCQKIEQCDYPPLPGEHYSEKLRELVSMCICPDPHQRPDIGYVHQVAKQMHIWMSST
# Chain of PAK4(h) (O96013 whole entry): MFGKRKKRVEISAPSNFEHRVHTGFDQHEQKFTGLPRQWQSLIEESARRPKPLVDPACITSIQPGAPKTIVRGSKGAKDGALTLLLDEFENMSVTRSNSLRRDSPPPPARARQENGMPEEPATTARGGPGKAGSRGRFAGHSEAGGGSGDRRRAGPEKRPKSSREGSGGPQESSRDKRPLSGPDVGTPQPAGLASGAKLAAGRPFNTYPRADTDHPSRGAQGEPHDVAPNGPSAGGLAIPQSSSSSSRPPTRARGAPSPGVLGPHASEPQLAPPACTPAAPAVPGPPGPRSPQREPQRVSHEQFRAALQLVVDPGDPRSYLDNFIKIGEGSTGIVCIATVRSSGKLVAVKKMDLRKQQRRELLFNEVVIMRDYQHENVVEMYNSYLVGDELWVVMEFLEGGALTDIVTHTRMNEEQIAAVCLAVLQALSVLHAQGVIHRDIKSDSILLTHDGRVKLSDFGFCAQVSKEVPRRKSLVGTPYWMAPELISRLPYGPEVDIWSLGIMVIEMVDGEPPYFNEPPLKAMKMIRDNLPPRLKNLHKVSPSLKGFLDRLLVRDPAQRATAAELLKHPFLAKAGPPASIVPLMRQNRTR
# Chain of PAK2(h) (Q13177 whole entry): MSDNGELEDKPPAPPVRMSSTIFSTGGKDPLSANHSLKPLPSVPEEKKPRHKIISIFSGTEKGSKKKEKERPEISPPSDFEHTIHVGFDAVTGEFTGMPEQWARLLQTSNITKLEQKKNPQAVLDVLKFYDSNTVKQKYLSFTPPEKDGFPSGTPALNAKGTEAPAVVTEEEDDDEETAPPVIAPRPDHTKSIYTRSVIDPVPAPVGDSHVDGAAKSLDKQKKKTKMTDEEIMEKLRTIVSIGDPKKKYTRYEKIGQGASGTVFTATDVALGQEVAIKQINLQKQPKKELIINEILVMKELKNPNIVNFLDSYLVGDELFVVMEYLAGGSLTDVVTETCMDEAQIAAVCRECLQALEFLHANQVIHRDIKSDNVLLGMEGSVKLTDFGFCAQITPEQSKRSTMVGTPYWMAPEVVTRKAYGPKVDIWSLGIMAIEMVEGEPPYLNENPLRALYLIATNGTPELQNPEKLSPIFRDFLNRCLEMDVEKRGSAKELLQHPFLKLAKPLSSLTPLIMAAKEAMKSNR
# Chain of MEK1 (Q02750 whole entry): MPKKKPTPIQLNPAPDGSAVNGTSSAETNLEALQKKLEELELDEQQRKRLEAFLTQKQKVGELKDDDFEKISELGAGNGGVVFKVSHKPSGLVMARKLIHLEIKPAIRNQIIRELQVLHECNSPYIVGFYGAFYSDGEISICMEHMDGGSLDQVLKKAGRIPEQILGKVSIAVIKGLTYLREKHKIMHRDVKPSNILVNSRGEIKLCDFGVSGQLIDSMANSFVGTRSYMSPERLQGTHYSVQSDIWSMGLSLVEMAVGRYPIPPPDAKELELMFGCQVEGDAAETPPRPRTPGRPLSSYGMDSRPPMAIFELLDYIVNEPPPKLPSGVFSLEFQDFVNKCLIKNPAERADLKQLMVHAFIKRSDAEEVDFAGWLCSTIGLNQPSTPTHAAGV
# Chain of PKCβI(h) (P05771 whole entry): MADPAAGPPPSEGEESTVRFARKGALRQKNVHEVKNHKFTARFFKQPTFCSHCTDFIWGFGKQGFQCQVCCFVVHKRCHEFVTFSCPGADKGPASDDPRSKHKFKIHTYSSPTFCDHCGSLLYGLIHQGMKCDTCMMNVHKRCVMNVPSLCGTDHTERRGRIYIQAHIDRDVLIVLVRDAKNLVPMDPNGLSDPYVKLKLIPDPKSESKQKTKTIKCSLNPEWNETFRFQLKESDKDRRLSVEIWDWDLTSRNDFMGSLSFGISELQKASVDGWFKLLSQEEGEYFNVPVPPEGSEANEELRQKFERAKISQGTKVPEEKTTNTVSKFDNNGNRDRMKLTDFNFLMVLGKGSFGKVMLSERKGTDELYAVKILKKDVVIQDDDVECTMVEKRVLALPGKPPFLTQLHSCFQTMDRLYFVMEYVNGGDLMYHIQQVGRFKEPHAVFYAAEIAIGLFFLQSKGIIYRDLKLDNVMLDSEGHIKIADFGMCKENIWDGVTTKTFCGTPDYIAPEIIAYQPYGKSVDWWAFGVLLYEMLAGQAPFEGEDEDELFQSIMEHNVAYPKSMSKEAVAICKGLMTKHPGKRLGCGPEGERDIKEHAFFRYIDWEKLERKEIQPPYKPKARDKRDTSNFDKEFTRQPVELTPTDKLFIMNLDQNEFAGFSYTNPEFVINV
# Chain of JNK2α2(h) (P45984 whole entry): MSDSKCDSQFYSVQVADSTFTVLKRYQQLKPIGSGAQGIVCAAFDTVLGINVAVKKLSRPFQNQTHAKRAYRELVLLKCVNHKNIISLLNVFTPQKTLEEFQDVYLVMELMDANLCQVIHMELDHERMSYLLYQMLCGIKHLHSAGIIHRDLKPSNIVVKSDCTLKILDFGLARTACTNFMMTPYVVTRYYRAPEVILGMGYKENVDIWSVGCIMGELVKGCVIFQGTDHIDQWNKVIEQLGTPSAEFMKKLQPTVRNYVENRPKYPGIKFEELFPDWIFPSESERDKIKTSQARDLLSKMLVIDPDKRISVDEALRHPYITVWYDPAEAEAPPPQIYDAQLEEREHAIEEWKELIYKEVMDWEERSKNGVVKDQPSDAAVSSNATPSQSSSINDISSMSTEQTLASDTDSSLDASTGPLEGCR
# Chain of MST2(h) (Q13188 whole entry): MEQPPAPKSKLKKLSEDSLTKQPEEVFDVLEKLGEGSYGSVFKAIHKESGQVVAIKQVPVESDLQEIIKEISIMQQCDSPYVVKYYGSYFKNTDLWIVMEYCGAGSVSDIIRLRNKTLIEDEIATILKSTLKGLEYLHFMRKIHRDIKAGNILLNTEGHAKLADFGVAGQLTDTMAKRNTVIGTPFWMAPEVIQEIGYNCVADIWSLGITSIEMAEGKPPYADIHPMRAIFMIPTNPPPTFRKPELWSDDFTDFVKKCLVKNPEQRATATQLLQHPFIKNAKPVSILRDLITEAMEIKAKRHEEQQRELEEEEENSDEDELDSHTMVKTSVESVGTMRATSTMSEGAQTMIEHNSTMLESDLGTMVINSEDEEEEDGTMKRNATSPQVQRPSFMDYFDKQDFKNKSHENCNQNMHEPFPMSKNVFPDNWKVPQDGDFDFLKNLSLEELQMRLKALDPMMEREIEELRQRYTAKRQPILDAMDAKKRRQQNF
# Chain of PKBα(h) (P31749 whole entry): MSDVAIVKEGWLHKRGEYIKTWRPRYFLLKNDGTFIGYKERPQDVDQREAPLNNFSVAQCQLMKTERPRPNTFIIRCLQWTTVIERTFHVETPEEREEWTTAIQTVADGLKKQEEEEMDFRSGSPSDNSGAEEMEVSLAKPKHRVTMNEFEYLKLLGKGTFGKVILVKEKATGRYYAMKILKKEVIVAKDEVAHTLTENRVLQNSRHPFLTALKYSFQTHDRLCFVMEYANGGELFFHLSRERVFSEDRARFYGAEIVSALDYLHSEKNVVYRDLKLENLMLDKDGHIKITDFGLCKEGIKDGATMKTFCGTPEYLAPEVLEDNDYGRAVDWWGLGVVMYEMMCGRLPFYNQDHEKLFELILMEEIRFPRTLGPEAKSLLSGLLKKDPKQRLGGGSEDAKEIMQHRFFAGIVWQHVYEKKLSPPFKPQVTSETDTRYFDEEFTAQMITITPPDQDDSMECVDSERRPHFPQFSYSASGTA
smiles,measurement,setting,value
"COc1cc(O)c2c(c1)[C@H]1O[C@@H]1C[C@H](O)[C@H](O)C(=O)/C=C\C[C@H](C)OC2=O [Hypothemycin, hypothemycin]","potency as MEK1 inhibitor relative to L-783,277 (fold less potent)",MEK1,4 fold
same,ERK2 Inhibition kinact.,ERK2 [1],5 ± 2 × 10^−3 sec^−1
same,Ki,ERK2 [1]; read-out: ERK2 Inhibition Ki,1900 ± 1100 nM
same,remaining activity at 0.2 µM,FGFR4(h),87%
same,remaining activity at 0.2 µM,PKCβI(h),99%
same,remaining activity at 0.2 µM,SAPK3(h),104%
same,remaining activity at 0.2 µM,NEK6(h),104%
same,remaining activity at 0.2 µM,MSK2(h),101%
same,remaining activity at 0.2 µM,MAPKAP-K2(h),98%
same,remaining activity at 0.2 µM,PKBγ(h),102%
same,remaining activity at 0.2 µM,JNK2α2(h),93%
same,remaining activity at 0.2 µM,CDK6/cyclinD3(h),95%
same,remaining activity at 0.2 µM,PKBα(h),153%
same,remaining activity at 0.2 µM,ASK1(h),100%
same,remaining activity at 0.2 µM,ALK(h),101%
same,remaining activity at 0.2 µM,MST2(h),94%
same,remaining activity at 0.2 µM,Rsk3(h),94%
same,remaining activity at 0.2 µM,CK2(h),99%
same,remaining activity at 0.2 µM,MAPK1(h); 0.2 μM,79%
same,remaining activity at 2 µM,MAPK1(h); 2.0 μM,10%
same,remaining activity at 0.2 µM,Bmx(h),99%
same,remaining activity at 0.2 µM,MSK1(h),87%
same,remaining activity at 0.2 µM,Lck(h),98%
same,remaining activity at 0.2 µM,BRK(h),89%
same,remaining activity at 0.2 µM,Ret(h),104%
same,remaining activity at 0.2 µM,CDK2/cyclinE(h),105%
same,remaining activity at 0.2 µM,CDK5/p35(h),103%
same,remaining activity at 0.2 µM,PAK4(h),92%
same,remaining activity at 0.2 µM,PAK2(h),104%
same,remaining activity at 0.2 µM,Fyn(h),87%
same,remaining activity at 0.2 µM,EphA2(h),87%
same,remaining activity at 0.2 µM,DDR2(h),92%
same,remaining activity at 0.2 µM,FGFR1(h),99%
same,remaining activity at 0.2 µM,TAK1(h); 0.2 μM,12%
same,remaining activity at 2 µM,TAK1(h); 2.0 μM,5%
same,kinact/Ki,ERK2 [2],1900 M⁻¹ s⁻¹
same,Ki,ERK2 [2]; 1 mM ATP,2700 nM
same,kinact,ERK2 [2]; 1 mM ATP,0.005 s⁻¹
